# Test results taken from EP4806899A1, “FUSED RING DERIVATIVE, PREPARATION METHOD THEREFOR AND USE THEREOF IN MEDICINE” (Shanghai Qilu Pharmaceutical Research and Development …, priority 2023, dated 2025).
# Assays:
# human CYP11B2 enzyme = target: T1, human CYP11B2 enzyme (Homo sapiens, UniProt P19099); assay: Enzyme inhibition activity assay in G402 cells stably expressing human CYP11B2 (aldosterone production from 11-DOC, LC/MS); type: cell-based; conditions: 1 µM 11-DOC, 16 hours, aldosterone detected
# T1 construct: the ORF of human CYP11B1 or CYP11B2 were transfected into G402 cells; expressed in transfected cells
# T1 sequence (P19099 25-503): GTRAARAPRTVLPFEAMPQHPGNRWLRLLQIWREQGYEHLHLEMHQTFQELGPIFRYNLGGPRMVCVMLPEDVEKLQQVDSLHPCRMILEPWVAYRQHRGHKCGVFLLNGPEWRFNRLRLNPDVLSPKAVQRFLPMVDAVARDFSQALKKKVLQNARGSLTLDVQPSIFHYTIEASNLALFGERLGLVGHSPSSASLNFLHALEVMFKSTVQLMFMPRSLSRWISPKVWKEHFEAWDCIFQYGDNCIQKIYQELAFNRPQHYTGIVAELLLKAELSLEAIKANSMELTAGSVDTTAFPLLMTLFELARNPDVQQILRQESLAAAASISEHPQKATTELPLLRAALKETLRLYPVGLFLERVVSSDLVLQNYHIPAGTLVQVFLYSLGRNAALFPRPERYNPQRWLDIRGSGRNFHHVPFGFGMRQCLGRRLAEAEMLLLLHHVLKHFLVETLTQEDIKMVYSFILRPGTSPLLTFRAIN
# Excerpt: (§1) G402 cells (ATCC, CRL 1440) are epithelioid cells isolated from the kidney of a patient with renal failure and are a type of leiomyoblastoma. For the screening of highly specific CYP11B2 inhibitors, we specifically used G402 cell lines stably expressing human CYP11B2 enzyme or human CYP11B1 enzyme for experimental development.
# (§2) Construction of Stably Transfected Cell Lines: Expression plasmids containing suitable promoters, suitable drug resistance markers, and the ORF of human CYP11B1 or CYP11B2 were transfected into G402 cells using standard techniques. The cells were then screened using the specific puromycin resistance marker. Monoclonal cells stably expressing human CYP11B2 were selected for expansion, and 11-deoxycorticosterone (11-DOC) was used as the specific substrate to evaluate enzyme activity based on aldosterone production. Monoclonal cells stably expressing human CYP11B1 were selected for expansion, and 11-deoxycortisol (11-DC) was used as the specific substrate, with cortisol production as the detection target for specific enzyme activity evaluation. The G402 cell lines stably expressing CYP11B1/CYP11B2 were cultured at 37 °C, 5% CO2, 95% air in complete medium (McCoy's 5A + 10% FBS + 1% PS + 0.5 µg/mL puromycin).
# (§3) Enzyme Inhibition Activity Assay: CYP11B1 G402/CYP11B2 G402 cells were spread out flatly in cell culture plates. After 24 hours, the medium was changed to an enzyme testing system (DMEM/F12 + 2.5% charcoal-stripped FCS). Small molecule inhibitors at various concentrations were added. After 1 hour, appropriate concentrations of specific substrates (1 µM 11-DOC / 1 µM 11-DC) were added and co-incubated with the cells for 16 hours. Cells were then collected, and specific products were detected using LC/MS methods with an AB SCIEX TRIPLE QUAD 5500+, CTO-40S instrument (CYP11B2 enzyme detecting aldosterone; CYP11B1 enzyme detecting cortisol).
# (§4) The IC50 values of the compounds were determined based on the G402 testing system. The dose-dependent inhibition of enzyme activity was calculated by plotting the added inhibitor concentration (x-axis) against the percentage of product inhibitory activity relative to the control group (y-axis) based on product formation at various compound concentrations. The following data were then fitted using the least squares method with XLfit 5.5.0 for a four-parameter logistic curve fit: [formula] • Y-axis: Percentage of product inhibitory activity relative to the control group; • logIC50: IC50 was determined using XLFit.
# (§5) The maximum enzyme activity corresponds to the amount of control product steroid/aldosterone in the absence of inhibitor, set as 100%. The minimum enzyme activity corresponds to the amount of reference control product steroid/aldosterone in the presence of inhibitor. Table 3 Inhibitory Activity of the Compounds of the Present Disclosure on CYP11B2 and CYP11B1
# [1] = Pharmacokinetic determination in mice after gavage administration (P.O.); type: in vivo; conditions: male, CD-1, mouse, po, 10 mg/kg, plasma
# Experimental: Mice and rats were used as test animals to study the pharmacokinetic behavior of the compounds of the present disclosure in plasma following gavage administration (P.O.). Plasma samples were collected at specific time points, compound concentrations in plasma were detected by LC-MS/MS, and pharmacokinetic parameters were calculated to evaluate the pharmacokinetics.
# • Mice, CD-1, male, Zhejiang Vital River Laboratory Animal Technology Co., Ltd. • Rats, Sprague-Dawley, male, Zhejiang Vital River Laboratory Animal Technology Co., Ltd., Shanghai Jihui Experimental Animal Breeding Co., Ltd.
# After administration to mice and rats, venous blood samples of 0.03 mL and 0.2 mL, respectively, were collected at 0.0833 (IV), 0.25, 0.5, 1, 2, 4, 8, and 24 hours and placed in EDTA-K2 test tubes. Plasma was separated by centrifugation at 4 °C, 4000 g for 5 minutes and stored at -80 °C.
# • 1) 10 µL of plasma sample was precipitated by adding 200 µL of acetonitrile, vortex mixed, and centrifuged for 15 minutes. • 2) The processed supernatant was diluted with water and analyzed by LC/MS/MS to determine the concentration of the test compound.
# Pharmacokinetic parameters were calculated using WinNonlin 8.3. The pharmacokinetic parameters for mice P.O. are shown in Table 4, and for rats P.O. in Table 5. Cmax represents the maximum plasma concentration, T1/2 represents the terminal elimination half-life, MRTInf represents the mean residence time, and AUC represents the area under the plasma concentration-time curve. Table 4 Pharmacokinetic Parameters of the Compounds of the Present Disclosure in Mice
# human CYP11B1 enzyme = target: T2, human CYP11B1 enzyme (Homo sapiens, UniProt P15538); assay: Enzyme inhibition activity assay in G402 cells stably expressing human CYP11B1 (cortisol production from 11-DC, LC/MS); type: cell-based; conditions: 1 µM 11-DC, 16 hours, cortisol detected
# T2 construct: the ORF of human CYP11B1 or CYP11B2 were transfected into G402 cells; expressed in transfected cells
# T2 sequence (P15538 25-503): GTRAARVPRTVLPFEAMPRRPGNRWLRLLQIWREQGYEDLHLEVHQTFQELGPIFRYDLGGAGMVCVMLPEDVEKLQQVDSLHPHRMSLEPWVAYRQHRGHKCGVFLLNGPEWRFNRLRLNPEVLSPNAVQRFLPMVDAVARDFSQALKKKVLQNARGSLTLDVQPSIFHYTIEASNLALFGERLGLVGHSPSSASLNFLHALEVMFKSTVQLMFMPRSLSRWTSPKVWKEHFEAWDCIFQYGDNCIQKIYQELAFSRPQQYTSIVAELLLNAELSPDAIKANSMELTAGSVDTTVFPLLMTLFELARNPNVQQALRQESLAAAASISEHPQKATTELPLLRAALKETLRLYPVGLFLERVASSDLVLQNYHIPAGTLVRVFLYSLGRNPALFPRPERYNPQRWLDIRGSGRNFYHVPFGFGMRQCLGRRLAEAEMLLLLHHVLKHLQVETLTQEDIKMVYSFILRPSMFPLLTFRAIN
# Excerpt: as §1, §2, §3, §4, §5
Compound,IC50 (human CYP11B2 enzyme) [µM],Cmax [1] [µM],MRT inf [1] [h],half-life [1] [h],AUC(0-t) ([1]; read-out: AUC0-24) [µM·h],IC50 (human CYP11B1 enzyme) [µM]
[2H]C([2H])([2H])NC(=O)N[C@@H]1CCCc2c(-c3ccc4c(c3)COC(=O)N4C)cncc21 [Compound A16],0.0095,51.7,2.37,1.07,184,
COC(=O)N[C@@H]1CCOc2c(-c3ccc4c(ccc(=O)n4C)c3)cncc21 [Compound A42],0.0129,,,,,1.7
COC(=O)N[C@@H]1CCOc2c(-c3ccc4c(c3)COC(=O)N4C)cncc21 [Compound A43],0.0066,,,,,0.572
COC(=O)N[C@@H]1CCCc2c(-c3cc(F)c4c(ccc(=O)n4C)c3)cncc21 [Compound A47],0.0069,,,,,0.72
[2H]C([2H])([2H])OC(=O)N[C@@H]1CCCc2c(-c3cc(F)c4c(ccc(=O)n4C)c3)cncc21 [Compound A48],0.0059,,,,,0.712
COC(=O)N[C@@H]1CCOc2c(-c3cc(F)c4c(ccc(=O)n4C)c3)cncc21 [Compound A49],0.0149,,,,,2.21
COC(=O)N[C@@H]1CCCc2c(-c3cc(Cl)c4c(ccc(=O)n4C)c3)cncc21 [Compound A51],0.0044,,,,,0.625
[2H]C([2H])([2H])OC(=O)N[C@@H]1CCCc2c(-c3cc(Cl)c4c(ccc(=O)n4C)c3)cncc21 [Compound A52],0.0059,,,,,0.797
COC(=O)N[C@@H]1CCOc2c(-c3cc(Cl)c4c(ccc(=O)n4C)c3)cncc21 [Compound A53],0.0131,,,,,2.01
[2H]C([2H])([2H])OC(=O)N[C@@H]1CCOc2c(-c3cc(Cl)c4c(ccc(=O)n4C)c3)cncc21 [Compound A54],0.0136,,,,,1.66
C[C@H](F)C(=O)N[C@@H]1CCCc2c(-c3ccc4c(c3)CCC(=O)N4C)cncc21 [Compound D07-P2],0.0118,,,,,1.63

# The next lines start with the values.
IC50 (human CYP11B2 enzyme) [µM],Cmax [1] [µM],MRT inf [1] [h],half-life [1] [h],AUC(0-t) ([1]; read-out: AUC0-24) [µM·h],IC50 (human CYP11B1 enzyme) [µM],Compound
0.0192,,,,,2.5,CCC(=O)N[C@@H]1CCCc2c(-c3ccc4c(ccc(=O)n4C)c3)cncc21 [Compound C04]
0.0311,,,,,2.4,CCC(=O)N[C@@H]1CCCc2c(-c3ccc4c(c3)CNC(=O)N4C)cncc21 [Compound C06]
0.031,,,,,3.85,CCC(=O)N[C@@H]1CCCc2c(-c3ccc4c(c3)OCC(=O)N4C)cncc21 [Compound C09]
0.0245,,,,,2.55,CCC(=O)N[C@@H]1CCCc2c(-c3ccc4c(c3)CCCC(=O)N4C)cncc21 [Compound C15]
0.0014,,,,,0.266,CCC(=O)N[C@@H]1CCCc2c(-c3ccc4c(c3)cc(C#N)n4C)cncc21 [Compound C36]
0.0114,,,,,1.72,CCC(=O)N[C@@H]1CCCc2c(-c3cnc4c(c3)cc(C#N)n4C)cncc21 [Compound C37]
0.0111,,,,,4.03,CCC(=O)N[C@@H]1CCCc2c(-c3cc(Cl)c4c(ccc(=O)n4C)c3)cncc21 [Compound C42]
0.0082,,,,,0.288,COCC(=O)N[C@@H]1CCCc2c(-c3ccc4c(c3)CCC(=O)N4C)cncc21 [Compound D06]
0.011,,,,,0.803,[2H]C([2H])([2H])NC(=O)N[C@@H]1CCCc2c(-c3ccc4c(c3)CCC(=O)N4C)cncc21 [Compound D08]
0.0047,,,,,0.275,CN1CCN([C@@H]2CCCc3c(-c4ccc5c(c4)CCC(=O)N5C)cncc32)C1=O [Compound D10]
0.0074,,,,,1.06,CN(C)C(=O)N[C@@H]1CCCc2c(-c3ccc4c(c3)CCC(=O)N4C)cncc21 [Compound D11]
0.0073,,,,,0.362,CN1C(=O)CCc2cc(-c3cncc4c3CCC[C@H]4N3CCOC3=O)ccc21 [Compound D12]
0.0025,,,,,0.128,[2H]C([2H])([2H])OC(=O)N[C@@H]1CCCc2c(-c3ccc4c(c3)CCC(=O)N4C)cncc21 [Compound D15]
0.0195,,,,,1.23,[2H]C([2H])([2H])N(C(=O)N[C@@H]1CCCc2c(-c3ccc4c(c3)CCC(=O)N4C)cncc21)C([2H])([2H])[2H] [Compound D16]
